Measured values taken from paper PMC7756392, “Syntheses of Thailandepsin B Pseudo‐Natural Products: Access to New Highly Potent HDAC Inhibitors via Late‐Stage Modification” (Chemistry (Weinheim an Der Bergstrasse, Germany), 2020).

Assays:
[1] = molecular target: T1, human recombinant HDAC6 (Homo sapiens, UniProt Q9UBN7); test: ZMAL trypsin assay, HDAC6; format: biochemical; conditions: for inhibition at 10 µM: ZMAL trypsin assay
T1 construct: purchased BPS Bioscience 50006
T1 sequence (Q9UBN7 1-1215): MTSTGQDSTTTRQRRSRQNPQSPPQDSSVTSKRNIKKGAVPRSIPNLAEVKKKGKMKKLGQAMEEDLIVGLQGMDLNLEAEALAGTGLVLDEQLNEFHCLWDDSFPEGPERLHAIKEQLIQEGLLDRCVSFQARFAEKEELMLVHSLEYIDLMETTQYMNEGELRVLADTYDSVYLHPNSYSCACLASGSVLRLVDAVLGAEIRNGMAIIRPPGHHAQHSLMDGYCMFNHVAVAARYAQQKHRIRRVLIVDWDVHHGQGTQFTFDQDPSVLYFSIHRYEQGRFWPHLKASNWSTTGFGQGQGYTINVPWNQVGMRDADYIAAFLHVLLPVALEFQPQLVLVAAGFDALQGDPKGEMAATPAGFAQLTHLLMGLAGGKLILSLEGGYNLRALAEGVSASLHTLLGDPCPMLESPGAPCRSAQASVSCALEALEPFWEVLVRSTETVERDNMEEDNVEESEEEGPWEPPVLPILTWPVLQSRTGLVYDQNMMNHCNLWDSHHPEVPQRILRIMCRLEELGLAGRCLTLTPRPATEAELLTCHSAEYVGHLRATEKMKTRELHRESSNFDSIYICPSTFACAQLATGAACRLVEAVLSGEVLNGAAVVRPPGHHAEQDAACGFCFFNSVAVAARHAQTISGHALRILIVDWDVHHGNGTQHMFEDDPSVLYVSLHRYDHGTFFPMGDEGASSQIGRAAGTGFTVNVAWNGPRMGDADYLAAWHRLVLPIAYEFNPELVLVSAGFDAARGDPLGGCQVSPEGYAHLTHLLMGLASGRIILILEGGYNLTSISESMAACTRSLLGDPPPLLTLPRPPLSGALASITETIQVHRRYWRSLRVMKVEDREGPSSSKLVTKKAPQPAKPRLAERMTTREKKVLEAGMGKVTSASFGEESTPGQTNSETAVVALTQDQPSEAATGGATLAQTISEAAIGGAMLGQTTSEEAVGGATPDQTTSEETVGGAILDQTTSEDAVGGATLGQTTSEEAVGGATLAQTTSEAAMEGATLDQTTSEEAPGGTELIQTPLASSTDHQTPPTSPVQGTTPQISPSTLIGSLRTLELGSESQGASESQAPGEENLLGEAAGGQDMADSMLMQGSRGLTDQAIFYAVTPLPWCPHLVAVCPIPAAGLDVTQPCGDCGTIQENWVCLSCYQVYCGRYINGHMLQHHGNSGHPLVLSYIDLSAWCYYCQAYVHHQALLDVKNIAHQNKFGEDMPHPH
Experimental: (§1) [28] Assays for HDAC1/6 were prepared according to: B. Heltweg , J. Trapp , M. Jung , Methods 2005, 36, 332–337; assays for HDAC8 were prepared according to: J. Senger , J. Melesina , M. Marek , C. Romier , I. Oehme , O. Witt , W. Sippl , M. Jung , J. Med. Chem. 2016, 59, 1545–1555. […]
(§2) hHDAC1/6: Activity assays were performed in OptiPlateTM-96 F black microplates (PerkinElmer). Commercial available enzymes (human recombinant HDAC1; BPS Bioscience, catalog no. 50051 and human recombinant HDAC6; BPS Bioscience, catalog no. 50006) were used. Total assay volume of 60 µL contains 42 µl of assay buffer (50 mM Tris -HCl, pH 8.0, 137 mM NaCl, 2.7 mM KCl, 1 mM MgCl2, 0.2 mM TCEP and 1 mg/mL bovine serum albumin), 10 µL of enzyme solution in assay buffer, 3 µL of increasing concentrations of inhibitors in DMSO and 5 μL of the fluorogenic substrate ZMAL (Z -(Ac)Lys-AMC) (126 μM). After incubation (90 min, 37 °C) 60 µL of stop solution, containing 5 μL Trichostatin A (TSA) (33 μM) and 10 μL trypsin (6 mg/mL) in trypsin buffer (Tris-HCl 50 mM, pH 8.0, NaCl 100 mM), were added. […]

[2] = molecular target: T2, human recombinant HDAC1 (Homo sapiens, UniProt Q13547); test: ZMAL trypsin assay, HDAC1; format: biochemical; conditions: for inhibition at 10 µM: ZMAL trypsin assay
T2 construct: purchased BPS Bioscience 50051
Experimental: as §1, §2

T2 sequence (Q13547 whole entry): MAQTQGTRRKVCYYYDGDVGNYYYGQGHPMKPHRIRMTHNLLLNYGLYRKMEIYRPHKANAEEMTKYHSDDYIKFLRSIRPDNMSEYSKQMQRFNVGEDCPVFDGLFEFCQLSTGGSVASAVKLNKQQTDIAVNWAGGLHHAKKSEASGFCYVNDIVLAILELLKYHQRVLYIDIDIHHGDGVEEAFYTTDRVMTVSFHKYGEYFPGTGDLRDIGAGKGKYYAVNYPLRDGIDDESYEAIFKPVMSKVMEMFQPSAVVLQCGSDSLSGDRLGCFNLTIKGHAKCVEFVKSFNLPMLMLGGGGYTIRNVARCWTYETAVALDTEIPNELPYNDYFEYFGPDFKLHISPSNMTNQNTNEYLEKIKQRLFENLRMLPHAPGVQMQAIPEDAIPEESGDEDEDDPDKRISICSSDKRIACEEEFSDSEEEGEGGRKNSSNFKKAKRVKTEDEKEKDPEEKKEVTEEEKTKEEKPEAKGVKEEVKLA

SMILES	HDAC6 inhibition (in words) [1]	inhibition at 10 µM [1] [%]	HDAC1 inhibition (in words) [2]	inhibition at 10 µM [2] [%]
C=C[C@@H]1CC(=O)N[C@H](CCCC)C(=O)N[C@H](C)C(=O)N[C@H]([C@@H](C)CC)[C@@H](O[Si](C)(C)C(C)(C)C)CC(=O)O1 [compound 9]	did not show inhibition	< 5	did not show inhibition	< 5
C=C[C@@H]1CC(=O)N[C@H](CCCC)C(=O)N[C@H](C)C(=O)N[C@H]([C@@H](C)CC)[C@@H](O)CC(=O)O1 [compound 28]	did not show inhibition	< 5	did not show inhibition	< 5
CCCC[C@H]1NC(=O)C[C@@H](/C=C/CCC(=O)N(OC(=O)OC(C)(C)C)C(=O)OC(C)(C)C)OC(=O)C[C@H](O[Si](C)(C)C(C)(C)C)[C@@H]([C@@H](C)CC)NC(=O)[C@@H](C)NC1=O [compound 35]	not active	< 5	not active	< 5
